target: human Edg-2 receptor (Homo sapiens, UniProt Q92633); assay: Determination of Edg-2 receptor inhibition by FLIPR measurements (LPA-mediated calcium liberation); format: cell-based; details: CHO cells overexpressing human Edg-2 receptor, LPA 100 nM, fluo-4 calcium fluorescence; read-out: Inhibitory concentrations IC50 for inhibition of the Edg-2 receptor
Procedure: A) Determination of Edg-2 Receptor Inhibition by Fluorescence Imaging Plate Reader (FLIPR) Measurements
The inhibition of the Edg-2 receptor (LPA1 receptor) by the compounds of the invention was quantified by the inhibitory effect on the LPA-mediated calcium liberation in a cell-based calcium fluorescence assay by use of Chinese hamster ovarian (CHO) cells in which the human Edg-2 receptor was stably overexpressed (Flp-In system, Invitrogen). […] Changes in intracellular calcium were determined by fluorescence measurement with the calcium-sensitive dye fluo-4 (Invitrogen) in a fluorescence imaging plate reader (FLIPR, […]).
CHO cells stably overexpressing the human Edg-2 receptor were seeded (40.000 per well) in black clear-bottomed poly-D-lysine-coated 96 well plates (Becton Dickinson, Biocoat cellware) approximately 18-24 h prior to the experiments. Cells were grown in an incubator at 37° C., 5% carbon dioxide and 95% humidity in cell culture media based on F-12 glutamax media (Gibco, #31765) supplemented with 1% (vol/vol) penicilline/streptomycine (PAN, #P06-07100), 10% (vol/vol) fetal calf serum (FCS, PAA, #A15-151) and hygromycin B (Invitrogen, #10687-010) 300 mg/l (final concentrations).
Prior to the FLIPR experiment, cells were loaded with fluo-4 acetoxymethyl ester (fluo-4 AM, Invitrogen, #F14202) for 60 min in an incubator at 37° C., 5% carbon dioxide and 95% humidity in dye-loading buffer consisting of Hanks' Balanced Salt Solution (HBSS, Invitrogen, #14065049) supplemented with fluo-4 AM at 2 μM (all data given for final concentration), Pluronic® F-127 0.05% (vol/vol) (Invitrogen, #P-3000 MP), HEPES 20 mM (Gibco, #15630), probenecid 2.5 mM (Sigma, #P-8761) and bovine serum albumin 0.05% (BSA, Sigma, #A-6003), adjusted to pH 7.5 with sodium hydroxide. During cell loading, fluo-4 AM is cleaved by intracellular esterase resulting in trapping of the dye fluo-4 within the cells. Loading was terminated by washing of the cells in a cell washer (Tecan Power washer) three times with the buffer specified afore but without fluo-4 AM and BSA. This latter buffer was also used as the buffer in the subsequent cell fluorescence measurements.
The dye-loaded and washed cells were pre-incubated for approximately 5 min with various concentrations of the test compound added as a solution in DMSO (0.3% vol/vol maximum final concentration of DMSO), or with DMSO in the respective concentration only (positive control). Subsequent addition of LPA (18:1, 1-oleoyl-sn-glycerol 3-phosphate; 100 nM final concentration) leads to liberation of intracellular calcium from internal stores resulting in a large transient increase of the fluo-4 fluorescence signal which was monitored over approximately 3 min. The percent inhibition caused by the test compound was determined from the maximum fluorescence response after LPA addition to cells pre-incubated with the compound as compared to the maximum fluorescence response after LPA addition to cells pre-incubated with DMSO only. All fluorescence values were corrected for the baseline fluorescence values obtained with cells which were pre-incubated with DMSO only and were not treated with LPA (baseline control). All measurements were performed in triplicate. From the percent inhibitions the inhibitory concentration IC50 was determined.

Sequence of human Edg-2 receptor (Q92633 whole entry): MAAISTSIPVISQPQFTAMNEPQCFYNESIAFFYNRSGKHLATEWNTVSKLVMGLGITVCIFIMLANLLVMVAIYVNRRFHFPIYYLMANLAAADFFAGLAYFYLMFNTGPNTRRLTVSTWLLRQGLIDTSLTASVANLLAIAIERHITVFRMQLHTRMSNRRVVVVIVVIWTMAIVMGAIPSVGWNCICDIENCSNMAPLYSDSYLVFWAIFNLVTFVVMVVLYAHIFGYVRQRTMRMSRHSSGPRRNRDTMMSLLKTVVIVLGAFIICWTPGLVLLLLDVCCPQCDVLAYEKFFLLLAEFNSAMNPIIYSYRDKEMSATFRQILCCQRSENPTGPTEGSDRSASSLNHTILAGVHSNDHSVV

IC50 [µM] | SMILES
1 to 30 | COc1ncc(C(=O)NC2(C(=O)O)CCCCCC2)cc1OCCc1cc(C)ccc1C [Example 87, 1-({5-[2-(2,5-Dimethyl-phenyl)-ethoxy]-6-methoxy-pyridine-3-carbonyl}-amino)-cycloheptanecarboxylic acid]
< 0.1 | COc1ncc(C(=O)NC2(C(=O)O)CCCCCC2)cc1OCCc1ccccc1 [Example 88, 1-{[5-(2-Phenyl-ethoxy)-6-methoxy-pyridine-3-carbonyl]-amino}-cycloheptanecarboxylic acid]
1 to 30 | COc1ncc(C(=O)NC2(C(=O)O)CCCCCC2)cc1-c1cccc(C#N)c1 [Example 92, 1-{[5-(3-Cyano-phenyl)-6-methoxy-pyridine-3-carbonyl]-amino}-cycloheptanecarboxylic acid]
1 to 30 | COc1ncc(C(=O)NC2(C(=O)O)CCCCCC2)cc1-c1cccc(NS(=O)(=O)N(C)C)c1 [Example 93]
0.1 to 1 | COc1ncc(C(=O)NC2(C(=O)O)CCCCCC2)cc1-c1cccc(Cl)c1 [Example 94, 1-{[5-(3-chloro-phenyl)-6-methoxy-pyridyl-3-carbonyl]-amino}-cycloheptanecarboxylic acid]
0.1 to 1 | COc1ncc(C(=O)NC2(C(=O)O)CCCCCC2)cc1-c1cccc(C(C)C)c1 [Example 95]
< 0.1 | COc1ncc(C(=O)NC2(C(=O)O)CCCCCC2)cc1-c1cccc(OC(F)(F)F)c1 [Example 96]
< 0.1 | COc1ncc(C(=O)NC2(C(=O)O)CCCCCC2)cc1-c1cccc(Cl)c1Cl [Example 97]
< 0.1 | COc1ncc(C(=O)NC2(C(=O)O)CCCCCC2)cc1-c1cc(F)c(F)c(F)c1 [Example 98]
< 0.1 | COc1ncc(C(=O)NC2(C(=O)O)CCCCCC2)cc1-c1cc(Cl)cc(C(F)(F)F)c1 [Example 99]
< 0.1 | COc1ncc(C(=O)NC2(C(=O)O)CCCCCC2)cc1-c1cccc(C(F)(F)F)c1 [Example 100]
0.1 to 1 | COc1ccc(C(=O)NC2(C(=O)O)CCCCCC2)cc1-c1cccc(NS(=O)(=O)N(C)C)c1 [Example 103]
0.1 to 1 | COc1ccc(C(=O)NC2(C(=O)O)CCCCCC2)cc1-c1cccc(C(C)C)c1 [Example 105]
1 to 30 | COc1ccc(C(=O)NC2(C(=O)O)CCCCCC2)cc1-c1cccc(C#N)c1 [Example 106]
< 0.1 | COc1ccc(C(=O)NC2(C(=O)O)CCCCCC2)cc1OCCc1cccc(CCO)c1 [Example 107, 1-(3-{2-[3-(2-Hydroxy-ethyl)-phenyl]-ethoxy}-4-methoxy-benzoylamino)-cycloheptanecarboxylic acid]
< 0.1 | COc1ccc(C(=O)NC2(C(=O)O)CCCCCCC2)cc1OCCc1cccc(CCO)c1 [Example 108, 1-(3-{2-[3-(2-Hydroxy-ethyl)-phenyl]-ethoxy}-4-methoxy-benzoylamino)-cyclooctanecarboxylic acid]
1 to 30 | COCCOc1ccc(C(=O)NC2(C(=O)O)CCCCCC2)cc1OCCc1cccc(C)c1 [Example 116, 1-[4-(2-Methoxy-ethoxy)-3-(2-m-tolyl-ethoxy)-benzoylamino]-cycloheptanecarboxylic acid]

Second part, the molecule before the results:

SMILES | IC50 [µM]
COc1ncc(C(=O)N[C@]2(C(=O)O)CC[C@@H](C)CC2)cc1OCCc1cccc(Cl)c1 [Example 85, trans-1-({5-[2-(3-chloro-phenyl)-ethoxy]-6-methoxy-pyridine-3-carbonyl}-amino)-4-methyl-cyclohexanecarboxylic acid] | < 0.1
COc1ncc(C(=O)N[C@]2(C(=O)O)CC[C@H](C)CC2)cc1OCCc1cc(C)ccc1C [Example 86, cis-1-({5-[2-(2,5-Dimethyl-phenyl)-ethoxy]-6-methoxy-pyridine-3-carbonyl}-amino)-4-methyl-cyclohexanecarboxylic acid] | 1 to 30
COc1ncc(C(=O)N[C@]2(C(=O)O)CC[C@@H](C(C)(C)C)CC2)cc1OCCc1cccc(C)c1 [Example 89, trans-4-tert-Butyl-1-{[6-methoxy-5-(2-m-tolyl-ethoxy)-pyridine-3-carbonyl]-amino}-cyclohexanecarboxylic acid] | 1 to 30
COc1ncc(C(=O)N[C@]2(C(=O)O)CC[C@@H](C)CC2)cc1OCCc1cccc(CCO)c1 [Example 90, trans-1-[(5-{2-[3-(2-Hydroxy-ethyl)-phenyl]-ethoxy}-6-methoxy-pyridine-3-carbonyl)-amino]-4-methyl-cyclohexanecarboxylic acid] | < 0.1
COc1ncc(C(=O)N[C@]2(C(=O)O)CC[C@H](C)CC2)cc1OCCc1cccc(CCO)c1 [Example 91, cis-1-[(5-{2-[3-(2-Hydroxy-ethyl)-phenyl]-ethoxy}-6-methoxy-pyridine-3-carbonyl)-amino]-4-methyl-cyclohexanecarboxylic acid] | < 0.1
COc1ccc(C(=O)N[C@]2(C(=O)O)CC[C@H](C)CC2)cc1OCCc1cccc(CCO)c1 [Example 109, cis-1-(3-{2-[3-(2-Hydroxy-ethyl)-phenyl]-ethoxy}-4-methoxy-benzoylamino)-4-methyl-cyclohexanecarboxylic acid] | < 0.1
COc1ccc(C(=O)N[C@]2(C(=O)O)CC[C@@H](C)CC2)cc1OCCc1cccc(CCO)c1 [Example 110, trans-1-(3-{2-[3-(2-Hydroxy-ethyl)-phenyl]-ethoxy}-4-methoxy-benzoylamino)-4-methyl-cyclohexanecarboxylic acid] | < 0.1
CC[C@H]1CC[C@](NC(=O)c2ccc(OC)c(OCCc3cccc(CCO)c3)c2)(C(=O)O)CC1 [Example 111, cis-4-Ethyl-1-(3-{2-[3-(2-hydroxy-ethyl)-phenyl]-ethoxy}-4-methoxy-benzoylamino)-cyclohexanecarboxylic acid] | < 0.1
CC[C@H]1CC[C@@](NC(=O)c2ccc(OC)c(OCCc3cccc(CCO)c3)c2)(C(=O)O)CC1 [Example 112, trans-4-Ethyl-1-(3-{2-[3-(2-hydroxy-ethyl)-phenyl]-ethoxy}-4-methoxy-benzoylamino)-cyclohexanecarboxylic acid] | < 0.1
COCCOc1ccc(C(=O)N[C@]2(C(=O)O)CC[C@H](C)CC2)cc1OCCc1cccc(Cl)c1 [Example 113, cis-1-[3-[2-(3-Chloro-phenyl)-ethoxy]-4-(2-methoxy-ethoxy)-benzoylamio]-4-methyl-cyclohexanecarboxylic acid] | 0.1 to 1
COCCOc1ccc(C(=O)N[C@]2(C(=O)O)CC[C@@H](C)CC2)cc1OCCc1cccc(Cl)c1 [Example 114, trans-1-[3-[2-(3-Chloro-phenyl)-ethoxy]-4-(2-methoxy-ethoxy)-benzoylamino]-4-methyl-cyclohexanecarboxylic acid] | 0.1 to 1
COCCOc1ccc(C(=O)NC2(C(=O)O)CCCCCC2)cc1OCCc1cccc(Cl)c1 [Example 115, 1-[3-[2-(3-Chloro-phenyl)-ethoxy]-4-(2-methoxy-ethoxy)-benzoylamino]-cycloheptanecarboxylic acid] | 1 to 30
COCCOc1ccc(C(=O)N[C@]2(C(=O)O)CC[C@@H](C)CC2)cc1OCCc1cccc(C)c1 [Example 117, trans-1-[4-(2-Methoxy-ethoxy)-3-(2-m-tolyl-ethoxy)-benzoylamino]-4-methyl-cyclohexane-carboxylic acid] | 1 to 30
COCCOc1ccc(C(=O)N[C@]2(C(=O)O)CC[C@H](C)CC2)cc1OCCc1cccc(C)c1 [Example 118, cis-1-[4-(2-Methoxy-ethoxy)-3-(2-m-tolyl-ethoxy)-benzoylamino]-4-methyl-cyclohexane-carboxylic acid] | 1 to 30
C[C@H]1CC[C@](NC(=O)c2ccc(OCCO)c(OCCc3cccc(Cl)c3)c2)(C(=O)O)CC1 [Example 119, cis-1-[3-[2-(3-Chloro-phenyl)-ethoxy]-4-(2-hydroxy-ethoxy)-benzoylamino]-4-methyl-cyclohexanecarboxylic acid] | < 0.1
O=C(NC1(C(=O)O)CCCCCC1)c1ccc(OCCO)c(OCCc2cccc(Cl)c2)c1 [Example 121, 1-[3-[2-(3-Chloro-phenyl)-ethoxy]-4-(2-hydroxy-ethoxy)-benzoylamino]-cycloheptane-carboxylic acid] | 0.1 to 1
